From patent US20170112866A1, “ANTI-TUMOR AGENT CONTAINING TAXANE COMPOUND, AND ANTI-TUMOR EFFECT ENHANCER” (Taiho Pharmaceutical Company Limited, priority 2014, published 2017)

Tests used:
[1] = Paclitaxel dose finding in SC-2-bearing mice (Reference Example 2); conditions: doses 10, 20, 30 mg/kg/day on Days 1 and 8 tested
Description: (§1) A human gastric cancer cell line (SC-2) was transplanted to the right chest of 5 to 6-week-old BALB/cA Jcl-nu mice. After the tumor transplantation, the long diameter (mm) and the short diameter (mm) of the tumor were measured, and the tumor volume (TV) was calculated. […] Paclitaxel was administered at doses of 10, 20, and 30 mg/kg/day on Days 1 and 8.

[2] = tested on: human gastric cancer cell line (SC-2); assay: Anti-tumor effect on SC-2 transplanted to nude mice (RTV, IR); assay type: in vivo; conditions: Day 29, tail vein, Day 1 and Day 8
Description: The FTD•TPI combination drug (a mixture of FTD and TPI at a molar ratio of 1:0.5) was prepared for administration at a dose of 150 mg/kg/day in terms of FTD. Paclitaxel (TXL, Wako Pure Chemical Industries, Ltd.) was prepared for administration at doses of 5 and 20 mg/kg/day. The FTD•TPI combination drug was orally administered on Days 1 to 14 consecutively, and paclitaxel was administered through the tail vein on Day 1 and Day 8. In the combination administration groups, the doses and administration schedules of the FTD•TPI combination drug and paclitaxel were the same as those of the corresponding monotherapy groups.
As an index of the anti-tumor effect, the TVs on Days 3, 7, 12, 15, 19, 22, 26, and 29 were calculated in each group. In accordance with the following equation, the relative tumor volume (RTV) to that on Day 0 was calculated and compared with the RTV of the untreated group (control).
TV (mm^3)=(long diameter×short diameter^2)/2
RTV=(TV on Day 29)/(TV on Day 0)
The RTVs were plotted on the indicated measurement days, and RTV changes over days in the control group, the FTD•TPI combination drug administration group, the paclitaxel administration group, and the combination administration group of the FTD•TPI combination drug and paclitaxel were compared.
The tumor growth inhibition rate (IR) on Day 29 on the basis of RTV values was calculated in accordance with the following equation.
IR (%)=[1−(mean RTV value of treated group)/(mean RTV value of control group)]×100

[3] = mouse, in vivo
Description: as §1

CC(=O)O[C@H]1C(=O)[C@@]2(C)[C@H]([C@H](OC(=O)c3ccccc3)[C@]3(O)C[C@H](OC(=O)[C@H](O)[C@@H](NC(=O)c4ccccc4)c4ccccc4)C(C)=C1C3(C)C)[C@]1(OC(C)=O)CO[C@@H]1C[C@@H]2O [Paclitaxel (TXL), (−)-(1S,2S,3R,4S,5R,7S,8S,10R,13S)-4,10-diacetoxy-2-benzoyloxy-5,20-epoxy-1,7-dihydroxy-9-oxotax-11-en-13-yl(2R,3S)-3-benzoylamino-2-hydroxy-3-phenylpropionate]
recommended dose for mice [1]: 20 mg/kg/day | IR (tumor growth inhibition rate) ([2]; paclitaxel 5 mg/kg/day): 27.1% | RTV (mean ± SD) ([2]; paclitaxel 5 mg/kg/day): 44.97 ± 1.78 | IR (tumor growth inhibition rate) ([2]; paclitaxel 20 mg/kg/day): 83.6% | RTV (mean ± SD) ([2]; paclitaxel 20 mg/kg/day): 10.13 ± 2.94 | mice deceased [3]: four of the six mice deceased
